Assay [1] addresses T1, KPC-2 (Klebsiella pneumoniae, UniProt Q9F663).
T1 construct: made in house
To be noted: KPC-2, ambient temperature, pH 7.0, nitrocefin; ref 6 and 7; cited from earlier work.

In assay [2] the target is T2, E. cloacae P99 (Enterobacter cloacae, UniProt P05364).
T2 construct: made in house
Briefly: koff measurement by jump dilution. The class given is biochemical. To be noted: ambient temperature. The procedure: (§1) Dissociation rate constants (koff) were measured by the jump-dilution method at ambient temperature as described previously.[10] Enzymes at 500 000-fold the final β-lactamase assay concentration (see above) were incubated for 15–20 min with 3-fold molar excess of freshly dissolved ETX1317 at ambient temperature in Buffer A. The mixtures were then diluted 250 000-fold with Buffer A, and 22.5 μL of the dilutions was mixed with 22.5 μL of 200 μM nitrocefin in Buffer A. The absorbance at 490 nm was monitored at 30 s intervals for 2 h at ambient temperature with a Spectramax Plus 384 plate reader. Progress curves were fit by nonlinear regression using XLfit (ID Business Solutions, Boston, MA) to the following equation: [drawing 2] where P is A490, C is the initial A490, V0 is the initial rate of absorbance increase, Vs is the final rate of absorbance increase, t is time in seconds, and k is the first order rate constant for enzyme reactivation due to inhibitor dissociation, koff.

Assay [3] concerns the target T3, TEM-1 (Escherichia coli, UniProt P62593).
T3 construct: made in house
Briefly: koff measurement by jump dilution. Format: biochemical. As to conditions: TEM-1, jump dilution, ambient temperature. The procedure: as §1

Assay [4] has as its target T4, P. aeruginosa AmpC (Pseudomonas aeruginosa, UniProt P24735).
T4 construct: made in house
The assay can be described thus: koff measurement by jump dilution. Format: biochemical. As to conditions: ambient temperature. On the procedure:
as §1

For assay [5], the target named is T1, KPC-2. The assay can be described thus: koff measurement by jump dilution. The class given is biochemical. As to conditions: KPC-2, jump dilution, ambient temperature. The procedure:
as §1

In assay [6] the target is T5, SHV-5 (Klebsiella pneumoniae, UniProt P0A3M1).
T5 construct: made in house
Briefly: koff measurement by jump dilution. As to conditions: SHV-5, jump dilution, ambient temperature. Format: biochemical. The procedure: as §1

The target in assay [7] is T6, CTX-M-15 (Escherichia coli, UniProt Q9EXV5).
T6 construct: made in house
The assay can be described thus: koff measurement by jump dilution. To be noted: CTX-M-15, jump dilution, ambient temperature. The class given is biochemical. On the procedure: as §1

Assay [8] addresses T4, P. aeruginosa AmpC. To be noted: ambient temperature, pH 7.0, nitrocefin, ref 6 and 7; cited from earlier work.
In assay [9] the target is OXA-24. As to conditions: OXA-24, ambient temperature, pH 7.0, nitrocefin; ref 6 and 7; cited from earlier work.
Assay [10] concerns the target T3, TEM-1. Further details: method as in PMID 28665414, PMID 32658473. As to conditions: TEM-1; equilibrium dissociation constant, inhibition not time-dependent on 30 s time scale; ref 6 and 7; cited from earlier work.
In assay [11] the target is T3, TEM-1. Briefly: β-lactamase acylation exchange (intact protein mass spectrometry). Format: binding. As to conditions: donor TEM-1, acceptor OXA-48, ambient temperature. On the procedure: (§2) β-Lactamase acylation exchange experiments and intact protein mass spectrometry were performed as described previously.[10] OXA-48 was used as the acceptor enzyme in most cases because of the stability of the ETX1317–OXA-48 complex. When OXA-48 was the donor enzyme, CTX-M-15 was used as the acceptor. Each β-lactamase (5 μM) was incubated with or without 25 μM ETX1317 in a 60 μL volume of 50 mM HEPES (pH 7.0) buffer for 1 h at ambient temperature. The samples were diluted to 400 μL with ice-cold buffer and then concentrated to ∼40 μL with Microcon YM-10 centrifugal ultrafilters (Millipore-Sigma, Burlington, MA) at 14 000g for 45 min at 4 °C. The retentates were rediluted to 400 μL with ice-cold buffer and reconcentrated as before. This was repeated a further time, leaving no significant amount of unbound ETX1317. The sample volumes were restored to 60 μL with ice-cold buffer and the samples were divided into two equal aliquots of 30 μL. Buffer (6 μL) was added to one aliquot, and 6 μL of acceptor enzyme was added to the other. The final acceptor enzyme concentrations were 5 μM. Samples were incubated at ambient temperature for the times indicated and then stored at −80 °C until analysis. LC-MS analysis was performed on a Triple TOF5600+ (AB Sciex, Redwood City, CA) equipped with a DuoSpray Ion Source and a Shimadzu LC 20-AD HPLC system (Shimadzu Scientific Instruments, Marlborough, MA). A 2 μL portion of each sample was injected onto a Poroshell 300SB-C8 75 × 2.1 mm, 5 μm column (Agilent) at 30 °C with a gradient of acetonitrile (5–95%) in 0.1% formic acid for 3 min followed by a 1 min hold at 95% before returning to 5% acetonitrile at a flow rate of 0.4 mL/min. The mass spectrometer was operated in positive ion and intact protein mode with source temperature of 450 °C. LC-MS data were acquired in the TOF MS mode for m/z+ from 600 to 2000. Nebulizer gas (GS1), heater gas (GS2), and curtain gas were set at 60, 70, and 30 psi, respectively. Ion spray voltage was 5500 V. Declustering voltage was 100 V, and collision energy was 10 V. Peak masses for protein species were determined following spectrum deconvolution using PeakView version 2.2 software. Mass accuracy of intact proteins is ±1 Da.

Assay [12] addresses T7, OXA-48 (Klebsiella pneumoniae, UniProt Q6XEC0).
T7 construct: made in house
Described as above. Format: binding. As to conditions: donor OXA-48, acceptor CTX-M-15, 19 h, ambient temperature, no added bicarbonate. On the procedure: as §2

Assay [13] concerns the target T1, KPC-2. The assay is described as above. Format: binding. As to conditions: donor KPC-2, acceptor OXA-48, 19 h, ambient temperature. The procedure:
as §2

Assay [14] addresses T5, SHV-5. The description is as above. Format: binding. As to conditions: donor SHV-5, acceptor OXA-48, ambient temperature. On the procedure:
as §2

Assay [15] concerns the target T8, Pseudomonas aeruginosa AmpC (Pseudomonas aeruginosa, UniProt P24735).
T8 construct: made in house
Described as above. Format: binding. To be noted: acceptor OXA-48, 1, 2 and 17 h, ambient temperature. The procedure:
as §2

Assay [16] deals with T6, CTX-M-15. The description is as above. The class given is binding. As to conditions: donor CTX-M-15, acceptor OXA-48, ambient temperature. On the procedure: as §2
Assay [17] concerns the target T9, Enterobacter cloacae P99 (Enterobacter cloacae, UniProt P05364).
T9 construct: made in house
Described as above. The class given is binding. As to conditions: donor P99, acceptor OXA-48, ambient temperature. The procedure:
as §2

Assay [18] concerns the target T2, E. cloacae P99. To be noted: E. cloacae P99, ambient temperature, pH 7.0, nitrocefin; ref 6 and 7; cited from earlier work.

Data on one compound can be found in PMC7837508, “Interactions of the Diazabicyclooctane Serine β-Lactamase Inhibitor ETX1317 with Target Enzymes” (ACS Infectious Diseases, 2020).

Molecules are shown by their SMILES.

T3 sequence (P62593 24-286 limits assumed): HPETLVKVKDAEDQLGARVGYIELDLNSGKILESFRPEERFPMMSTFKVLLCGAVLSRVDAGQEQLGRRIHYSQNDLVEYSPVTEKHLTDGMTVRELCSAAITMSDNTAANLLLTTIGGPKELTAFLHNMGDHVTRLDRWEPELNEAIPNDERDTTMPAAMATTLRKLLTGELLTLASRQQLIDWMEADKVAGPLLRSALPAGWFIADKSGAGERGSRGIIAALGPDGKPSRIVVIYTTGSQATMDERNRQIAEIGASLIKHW
T1 sequence (Q9F663 25-293, looked up, species assumed): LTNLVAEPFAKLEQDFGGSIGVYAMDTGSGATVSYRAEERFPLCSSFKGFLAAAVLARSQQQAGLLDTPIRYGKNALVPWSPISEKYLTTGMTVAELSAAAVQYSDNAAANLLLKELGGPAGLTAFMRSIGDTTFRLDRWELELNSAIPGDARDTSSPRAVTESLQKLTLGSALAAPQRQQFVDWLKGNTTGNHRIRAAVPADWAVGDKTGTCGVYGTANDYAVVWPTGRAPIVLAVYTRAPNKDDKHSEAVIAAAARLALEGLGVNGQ
T6 sequence (Q9EXV5 29-291, species assumed): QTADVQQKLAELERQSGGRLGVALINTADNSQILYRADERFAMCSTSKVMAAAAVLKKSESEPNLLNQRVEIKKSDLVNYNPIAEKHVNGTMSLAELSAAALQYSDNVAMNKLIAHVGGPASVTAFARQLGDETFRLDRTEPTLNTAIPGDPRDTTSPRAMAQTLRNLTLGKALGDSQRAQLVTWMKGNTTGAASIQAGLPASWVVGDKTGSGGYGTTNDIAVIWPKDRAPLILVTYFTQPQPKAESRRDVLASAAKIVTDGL
T5 sequence (P0A3M1 22-286, species assumed): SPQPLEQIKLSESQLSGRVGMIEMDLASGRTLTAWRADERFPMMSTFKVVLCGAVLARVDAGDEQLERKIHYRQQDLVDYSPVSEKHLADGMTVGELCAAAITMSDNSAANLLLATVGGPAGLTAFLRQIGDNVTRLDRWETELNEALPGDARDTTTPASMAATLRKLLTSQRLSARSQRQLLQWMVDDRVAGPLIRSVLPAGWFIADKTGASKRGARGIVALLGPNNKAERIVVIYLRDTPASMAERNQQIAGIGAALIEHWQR
T4 sequence (P24735 27-397): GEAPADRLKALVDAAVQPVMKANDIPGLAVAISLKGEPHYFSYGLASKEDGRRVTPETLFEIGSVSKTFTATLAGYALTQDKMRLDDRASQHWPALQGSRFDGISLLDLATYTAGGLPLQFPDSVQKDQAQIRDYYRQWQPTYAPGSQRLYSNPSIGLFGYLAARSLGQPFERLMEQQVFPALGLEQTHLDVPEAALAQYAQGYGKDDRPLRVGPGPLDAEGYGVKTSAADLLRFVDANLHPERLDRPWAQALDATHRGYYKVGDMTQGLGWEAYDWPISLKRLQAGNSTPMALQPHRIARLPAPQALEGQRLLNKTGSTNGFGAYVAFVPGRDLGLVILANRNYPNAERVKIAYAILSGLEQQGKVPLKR
T2 sequence (P05364 21-381): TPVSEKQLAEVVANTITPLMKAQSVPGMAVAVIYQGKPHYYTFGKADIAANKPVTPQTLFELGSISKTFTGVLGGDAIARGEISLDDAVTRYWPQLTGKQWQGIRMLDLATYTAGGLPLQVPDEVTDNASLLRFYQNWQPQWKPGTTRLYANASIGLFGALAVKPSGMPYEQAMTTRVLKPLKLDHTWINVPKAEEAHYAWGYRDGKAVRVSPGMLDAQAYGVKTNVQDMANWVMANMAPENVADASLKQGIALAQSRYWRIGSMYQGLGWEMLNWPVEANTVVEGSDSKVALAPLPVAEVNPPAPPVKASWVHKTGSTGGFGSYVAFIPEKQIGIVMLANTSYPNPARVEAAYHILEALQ
T7 sequence (Q6XEC0 23-265, looked up, species assumed): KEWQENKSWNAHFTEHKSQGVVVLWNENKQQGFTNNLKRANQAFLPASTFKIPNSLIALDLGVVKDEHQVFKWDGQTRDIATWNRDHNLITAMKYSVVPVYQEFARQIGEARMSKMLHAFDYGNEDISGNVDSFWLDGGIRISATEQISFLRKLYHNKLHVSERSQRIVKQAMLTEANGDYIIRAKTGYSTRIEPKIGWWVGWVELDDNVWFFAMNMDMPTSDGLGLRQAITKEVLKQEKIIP
T8 sequence (P24735 27-397): as the sequence (P24735 27-397) above
T9 sequence (P05364 21-381): as the sequence (P05364 21-381) above

In general, koff refers to the rate constant with which the complex falls apart. With `CC1=C[C@@H](C(N)=O)N2C[C@@H]1N(O[C@H](F)C(=O)O)C2=O` [ETX1317], the kinact/Ki in assay [1] is on record as 4.9 (±0.2) × 10^4 M^–1 s^–1; in assay [8], 1.20 (±0.04) × 10^4 M^–1 s^–1; in assay [9], 4.6 (±0.2) × 10^3 M^–1 s^–1; in assay [18], 3.9 (±0.2) × 10^4 M^–1 s^–1. Besides, the koff in [2] came to 9.2e-05 s⁻¹; in assay [3], 0.008 s⁻¹; in [4], 0.0006 s⁻¹; in assay [5], 0.00052 s⁻¹; in assay [6], 0.002 s⁻¹; in assay [7] it was 0.00013 s⁻¹. Moreover, the Ki in assay [10] was 0.34 nM. Also, the “acylation exchange (recyclization and dissociation of intact inhibitor) from donor to acceptor enzyme” value in assay [11] was “observed”; in [12] it was “lack of acylation exchange”; in assay [13], “observed”; in [14] it was “observed”; in assay [15] it was “observed”; in assay [16], “observed”. Also, in assay [17], the “acylation exchange (recyclization and dissociation of intact inhibitor) from donor to acceptor enzyme” value was “observed”.
